Experimental data taken from ChEMBL document CHEMBL1909046, “DrugMatrix in vitro pharmacology data”.
pIC50, pKi: −log10 of the molar value.

Key:
[1] = molecular target: Aldo-keto reductase family 1 member B1 (Rattus norvegicus, UniProt P07943); experiment: biochemical; format: tissue-based, Lens of camera-type eye;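 further: inhibition of aldose reductase enzyme activity, measured with DL-glyceraldehyde as the substrate; in other assays of this panel Not Active means under 50% inhibition at 10 µM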
Cannabinoid receptor 1 = Cannabinoid receptor 1 (Homo sapiens, UniProt P21554); format: cell membranes, Chem-1, Membrane; conditions: for IC50: chem-1; on all read-outs here: in other assays of this panel Not Active means under 50% inhibition at 10 µM
[2] = molecular target: T1, C-C chemokine receptor type 4 (Homo sapiens, UniProt P51679); format: cell membranes, Membrane; conditions: chem-1; further: in other assays of this panel Not Active means under 50% inhibition at 10 µM
T1 sequence (P51679 whole entry): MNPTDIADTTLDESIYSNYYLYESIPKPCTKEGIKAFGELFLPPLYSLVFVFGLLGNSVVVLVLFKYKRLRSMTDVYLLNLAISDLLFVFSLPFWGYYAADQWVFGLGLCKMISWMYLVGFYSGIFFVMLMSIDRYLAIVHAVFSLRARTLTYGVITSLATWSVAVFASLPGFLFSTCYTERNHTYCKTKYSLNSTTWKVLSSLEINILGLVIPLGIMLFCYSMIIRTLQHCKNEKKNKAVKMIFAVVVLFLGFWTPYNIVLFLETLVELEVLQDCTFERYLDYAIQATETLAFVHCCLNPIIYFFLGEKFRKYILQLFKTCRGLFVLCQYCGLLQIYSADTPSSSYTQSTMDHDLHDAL

[3] = molecular target: C-C chemokine receptor type 5 (Homo sapiens, UniProt P51681); format: cell membranes, HEK293, Membrane; conditions: hek293; further: in other assays of this panel Not Active means under 50% inhibition at 10 µM
[4] = DRUGMATRIX: GABAA, Flunitrazepam, Central radioligand binding (ligand: [3H] Flunitrazepam); format: cell membranes, Rattus norvegicus, Wistar, Brain, Membrane; conditions: Not Active = under 50% inhibition at 10 µM
[5] = molecular target: T2, Polyunsaturated fatty acid lipoxygenase ALOX15 (Oryctolagus cuniculus, UniProt P12530); experiment: biochemical; format: tissue-based, Reticulocytes; conditions: for pIC50: read-out: IC50; for IC50: reticulocytes
T2 sequence (P12530 whole entry): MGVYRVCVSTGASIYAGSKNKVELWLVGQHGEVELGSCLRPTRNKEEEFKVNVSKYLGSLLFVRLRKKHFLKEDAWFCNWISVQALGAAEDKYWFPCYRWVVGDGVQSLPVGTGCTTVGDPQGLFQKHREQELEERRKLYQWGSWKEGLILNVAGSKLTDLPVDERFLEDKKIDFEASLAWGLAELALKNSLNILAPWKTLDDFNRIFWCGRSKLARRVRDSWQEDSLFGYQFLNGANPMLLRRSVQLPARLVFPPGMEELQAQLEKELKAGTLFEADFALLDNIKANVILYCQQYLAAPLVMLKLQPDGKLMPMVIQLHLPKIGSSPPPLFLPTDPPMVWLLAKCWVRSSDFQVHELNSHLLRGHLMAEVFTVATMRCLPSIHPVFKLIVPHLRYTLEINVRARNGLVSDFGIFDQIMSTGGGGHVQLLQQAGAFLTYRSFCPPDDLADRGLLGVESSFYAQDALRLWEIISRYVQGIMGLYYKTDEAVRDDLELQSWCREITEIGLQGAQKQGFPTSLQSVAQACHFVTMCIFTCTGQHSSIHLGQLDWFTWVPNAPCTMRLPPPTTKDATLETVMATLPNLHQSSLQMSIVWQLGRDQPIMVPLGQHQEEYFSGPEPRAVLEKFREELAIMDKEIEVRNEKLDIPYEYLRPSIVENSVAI

[6] = molecular target: T3, Neuropeptide Y receptor type 1 (Homo sapiens, UniProt P25929); format: cell membranes, Membrane; conditions: sk-n-mc; further: in other assays of this panel Not Active means under 50% inhibition at 10 µM
T3 sequence (P25929 whole entry): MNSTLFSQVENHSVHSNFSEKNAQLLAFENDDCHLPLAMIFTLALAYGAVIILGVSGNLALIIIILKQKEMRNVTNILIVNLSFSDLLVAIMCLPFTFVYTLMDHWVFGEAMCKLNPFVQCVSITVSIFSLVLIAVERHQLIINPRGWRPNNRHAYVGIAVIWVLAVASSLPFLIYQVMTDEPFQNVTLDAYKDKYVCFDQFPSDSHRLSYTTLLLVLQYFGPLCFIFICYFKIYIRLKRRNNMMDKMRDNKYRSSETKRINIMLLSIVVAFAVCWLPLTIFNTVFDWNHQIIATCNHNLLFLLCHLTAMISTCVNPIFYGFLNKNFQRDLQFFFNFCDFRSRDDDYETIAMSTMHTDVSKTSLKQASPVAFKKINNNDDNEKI

[7] = molecular target: T4, Neuropeptide Y receptor type 2 (Homo sapiens, UniProt P49146); format: cell membranes, Membrane; conditions: kan-ts; further: in other assays of this panel Not Active means under 50% inhibition at 10 µM
T4 sequence (P49146 whole entry): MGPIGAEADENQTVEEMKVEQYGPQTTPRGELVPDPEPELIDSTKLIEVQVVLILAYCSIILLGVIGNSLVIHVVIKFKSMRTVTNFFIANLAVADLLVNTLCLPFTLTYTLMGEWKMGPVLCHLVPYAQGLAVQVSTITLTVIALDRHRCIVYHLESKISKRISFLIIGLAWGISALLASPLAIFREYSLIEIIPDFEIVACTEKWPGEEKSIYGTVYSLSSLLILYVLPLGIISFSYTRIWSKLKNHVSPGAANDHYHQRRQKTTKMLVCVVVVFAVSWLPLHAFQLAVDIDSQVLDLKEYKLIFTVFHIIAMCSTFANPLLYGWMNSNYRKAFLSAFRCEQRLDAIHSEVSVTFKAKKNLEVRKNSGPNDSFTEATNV

Chain of Cannabinoid receptor 1 (P21554 whole entry): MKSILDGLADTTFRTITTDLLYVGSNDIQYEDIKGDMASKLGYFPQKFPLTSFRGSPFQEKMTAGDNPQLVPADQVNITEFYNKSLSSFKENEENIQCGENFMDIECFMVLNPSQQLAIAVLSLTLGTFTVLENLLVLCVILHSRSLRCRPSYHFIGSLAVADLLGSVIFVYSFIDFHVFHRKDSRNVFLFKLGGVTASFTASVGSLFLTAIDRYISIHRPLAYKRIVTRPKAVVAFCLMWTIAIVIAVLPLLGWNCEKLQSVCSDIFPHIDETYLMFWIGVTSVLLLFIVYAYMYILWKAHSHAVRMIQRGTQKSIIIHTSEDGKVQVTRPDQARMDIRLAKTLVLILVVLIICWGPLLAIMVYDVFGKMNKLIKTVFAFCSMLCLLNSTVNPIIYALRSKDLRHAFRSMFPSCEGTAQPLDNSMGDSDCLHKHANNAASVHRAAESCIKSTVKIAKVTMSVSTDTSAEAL
Chain of C-C chemokine receptor type 5 (P51681 whole entry): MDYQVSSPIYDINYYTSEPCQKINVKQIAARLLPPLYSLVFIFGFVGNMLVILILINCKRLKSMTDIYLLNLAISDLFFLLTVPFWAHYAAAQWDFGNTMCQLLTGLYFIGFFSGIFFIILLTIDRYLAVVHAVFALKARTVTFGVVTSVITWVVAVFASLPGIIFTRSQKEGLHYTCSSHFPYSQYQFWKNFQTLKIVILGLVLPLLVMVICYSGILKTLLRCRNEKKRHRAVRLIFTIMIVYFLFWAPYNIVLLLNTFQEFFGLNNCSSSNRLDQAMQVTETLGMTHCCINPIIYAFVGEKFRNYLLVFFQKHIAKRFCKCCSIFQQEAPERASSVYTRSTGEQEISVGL

C[C@]12CC[C@@H]3c4ccc(O)cc4CC[C@H]3[C@@H]1CC[C@@H]2O [ESTRADIOL]
IC50 [1]: Not Active
IC50 (Cannabinoid receptor 1): Not Active
IC50 [2]: Not Active
IC50 [3]: Not Active
IC50 [4]: Not Active
Ki [4]: Not Active
pIC50 [5]: 4.95
IC50 [6]: Not Active
IC50 [7]: Not Active

CC[C@@H](CO)NCCN[C@@H](CC)CO [ETHAMBUTOL]
IC50 [1]: Not Active
IC50 (Cannabinoid receptor 1): Not Active
IC50 [2]: Not Active
IC50 [3]: Not Active
IC50 [4]: Not Active
Ki [4]: Not Active
IC50 [5]: Not Active
IC50 [6]: Not Active
IC50 [7]: Not Active

CC1(C)O[C@@H]2C[C@H]3[C@@H]4C[C@H](F)C5=CC(=O)C=C[C@]5(C)[C@H]4[C@@H](O)C[C@]3(C)[C@]2(C(=O)CO)O1 [FLUNISOLIDE]
IC50 [1]: Not Active
IC50 (Cannabinoid receptor 1): Not Active
IC50 [2]: Not Active
IC50 [3]: Not Active
IC50 [4]: Not Active
Ki [4]: Not Active
IC50 [5]: Not Active
IC50 [6]: Not Active
IC50 [7]: Not Active

CC1(C)O[C@@H]2C[C@H]3[C@@H]4C[C@H](F)C5=CC(=O)C=C[C@]5(C)[C@@]4(F)[C@@H](O)C[C@]3(C)[C@]2(C(=O)CO)O1 [FLUOCINOLONE ACETONIDE]
IC50 [1]: Not Active
IC50 (Cannabinoid receptor 1): Not Active
IC50 [2]: Not Active
IC50 [3]: Not Active
IC50 [4]: Not Active
Ki [4]: Not Active
IC50 [5]: Not Active
IC50 [6]: Not Active
IC50 [7]: Not Active

CC1(C)O[C@@H]2C[C@H]3[C@@H]4C[C@H](F)C5=CC(=O)CC[C@]5(C)[C@H]4[C@@H](O)C[C@]3(C)[C@]2(C(=O)CO)O1 [FLURANDRENOLIDE]
IC50 [1]: Not Active
IC50 (Cannabinoid receptor 1): Not Active
IC50 [2]: Not Active
IC50 [3]: Not Active
IC50 [4]: Not Active
Ki [4]: Not Active
IC50 [5]: Not Active
IC50 [6]: Not Active
IC50 [7]: Not Active

CN(C)c1ccc(C(=C2C=CC(=[N+](C)C)C=C2)c2ccc(N(C)C)cc2)cc1.[Cl-] [GENTIAN VIOLET]
IC50 [1]: Not Active
IC50 (Cannabinoid receptor 1): Not Active
IC50 [2]: Not Active
IC50 [3]: Not Active
IC50 [4]: Not Active
Ki [4]: Not Active
IC50 [5]: Not Active
IC50 [6]: Not Active
IC50 [7]: Not Active

Cc1ccc(S(=O)(=O)NC(=O)NN2CC3CCCC3C2)cc1 (stereo not given) [GLICLAZIDE]
IC50 [1]: Not Active
IC50 (Cannabinoid receptor 1): Not Active
IC50 [2]: Not Active
IC50 [3]: Not Active
IC50 [4]: Not Active
Ki [4]: Not Active
IC50 [5]: Not Active
IC50 [6]: Not Active
IC50 [7]: Not Active

NC(=O)NO [HYDROXYUREA]
IC50 [1]: Not Active
IC50 (Cannabinoid receptor 1): Not Active
IC50 [2]: Not Active
IC50 [3]: Not Active
IC50 [4]: Not Active
Ki [4]: Not Active
IC50 [5]: Not Active
IC50 [6]: Not Active
IC50 [7]: Not Active

CC(C)Cc1ccc(C(C)C(=O)O)cc1 (stereo not given) [IBUPROFEN]
IC50 [1]: Not Active
IC50 (Cannabinoid receptor 1): Not Active
IC50 [2]: Not Active
IC50 [3]: Not Active
IC50 [4]: Not Active
Ki [4]: Not Active
IC50 [5]: Not Active
IC50 [6]: Not Active
IC50 [7]: Not Active

COc1ccc2c(c1)c(CC(=O)O)c(C)n2C(=O)c1ccc(Cl)cc1 [INDOMETHACIN]
pIC50 ([1]; read-out: IC50): 5.44
IC50 (Cannabinoid receptor 1): Not Active
IC50 [2]: Not Active
IC50 [3]: Not Active
IC50 [4]: Not Active
Ki [4]: Not Active
IC50 [5]: Not Active
IC50 [6]: Not Active
IC50 [7]: Not Active

CCc1c2c(nc3ccc(OC(=O)N4CCC(N5CCCCC5)CC4)cc13)-c1cc3c(c(=O)n1C2)COC(=O)[C@]3(O)CC [IRINOTECAN]
IC50 [1]: Not Active
IC50 (Cannabinoid receptor 1): Not Active
IC50 [2]: Not Active
IC50 [3]: Not Active
IC50 [4]: Not Active
Ki [4]: Not Active
IC50 [5]: Not Active
IC50 [6]: Not Active
IC50 [7]: Not Active

CC(C(=O)O)c1cccc(C(=O)c2ccccc2)c1 (stereo not given) [KETOPROFEN]
IC50 [1]: Not Active
IC50 (Cannabinoid receptor 1): Not Active
IC50 [2]: Not Active
IC50 [3]: Not Active
IC50 [4]: Not Active
Ki [4]: Not Active
IC50 [5]: Not Active
IC50 [6]: Not Active
IC50 [7]: Not Active

Nc1ccn([C@@H]2CS[C@H](CO)O2)c(=O)n1 [LAMIVUDINE]
IC50 [1]: Not Active
IC50 (Cannabinoid receptor 1): Not Active
IC50 [2]: Not Active
IC50 [3]: Not Active
IC50 [4]: Not Active
Ki [4]: Not Active
IC50 [5]: Not Active
IC50 [6]: Not Active
IC50 [7]: Not Active

O=S(=O)([O-])CCS.[Na+] [MESNA]
IC50 [1]: Not Active
IC50 (Cannabinoid receptor 1): Not Active
IC50 [2]: Not Active
IC50 [3]: Not Active
IC50 [4]: Not Active
Ki [4]: Not Active
IC50 [5]: Not Active
IC50 [6]: Not Active
IC50 [7]: Not Active

C#C[C@]1(O)CC[C@H]2[C@@H]3CCc4cc(OC)ccc4[C@H]3CC[C@@]21C [MESTRANOL]
IC50 [1]: Not Active
pIC50 (Cannabinoid receptor 1; read-out: IC50): 4.54
pKi (Cannabinoid receptor 1; read-out: Ki): 4.65
IC50 [2]: Not Active
IC50 [3]: Not Active
IC50 [4]: Not Active
Ki [4]: Not Active
IC50 [5]: Not Active
IC50 [6]: Not Active
IC50 [7]: Not Active

CC(=O)Nc1cccc(O)c1 [METACETAMOL]
IC50 [1]: Not Active
IC50 (Cannabinoid receptor 1): Not Active
IC50 [2]: Not Active
IC50 [3]: Not Active
IC50 [4]: Not Active
Ki [4]: Not Active
IC50 [5]: Not Active
IC50 [6]: Not Active
IC50 [7]: Not Active

Cc1ncc([N+](=O)[O-])n1CCO [METRONIDAZOLE]
IC50 [1]: Not Active
IC50 (Cannabinoid receptor 1): Not Active
IC50 [2]: Not Active
IC50 [3]: Not Active
IC50 [4]: Not Active
Ki [4]: Not Active
IC50 [5]: Not Active
IC50 [6]: Not Active
IC50 [7]: Not Active

CC(C)(C(=O)c1cccnc1)c1cccnc1 [METYRAPONE]
IC50 [1]: Not Active
IC50 (Cannabinoid receptor 1): Not Active
IC50 [2]: Not Active
IC50 [3]: Not Active
IC50 [4]: Not Active
Ki [4]: Not Active
IC50 [5]: Not Active
IC50 [6]: Not Active
IC50 [7]: Not Active

Oc1ccc(OCc2ccccc2)cc1 [MONOBENZONE]
IC50 [1]: Not Active
IC50 (Cannabinoid receptor 1): Not Active
IC50 [2]: Not Active
IC50 [3]: Not Active
IC50 [4]: Not Active
Ki [4]: Not Active
pIC50 [5]: 5.31
IC50 [6]: Not Active
IC50 [7]: Not Active

CC(C)(Oc1ccc(C2CCCc3ccccc32)cc1)C(=O)O (stereo not given) [NAFENOPIN]
IC50 [1]: Not Active
IC50 (Cannabinoid receptor 1): Not Active
IC50 [2]: Not Active
IC50 [3]: Not Active
IC50 [4]: Not Active
Ki [4]: Not Active
IC50 [5]: Not Active
IC50 [6]: Not Active
IC50 [7]: Not Active

COc1ccc2cc([C@H](C)C(=O)O)ccc2c1 [NAPROXEN]
IC50 [1]: Not Active
IC50 (Cannabinoid receptor 1): Not Active
IC50 [2]: Not Active
IC50 [3]: Not Active
IC50 [4]: Not Active
Ki [4]: Not Active
IC50 [5]: Not Active
IC50 [6]: Not Active
IC50 [7]: Not Active
